Assay results published in publication PMC10847306, “The antibacterial activity and mechanism of a novel peptide MR-22 against multidrug-resistant Escherichia coli” (Frontiers in Cellular and Infection Microbiology, 2024).
≈ marks a conversion by molar mass, not a printed value. Each block holds one molecule with its values, some of them ahead of it.

Legend:
Test in all cases: microbe, parasite or virus in culture
E. coli ATCC 25922 = conditions: for susceptibility category (S/I/R) given with the MIC: E. coli ATCC 25922; for MIC: Escherichia coli, ATCC25922, 18 h
Protocol: (§1) The MIC were determined by a micro dilution method in Mueller-Hinton broth (MHB) ([Cuenca-Estrella et al., 2010]). The final concentration of bacterial suspension in MHB were 1.0×10^6 CFU/mL. The final concentration of MR-22 ranged 1 ~ 256 μg/mL in 96 wells plate broth at 37°C for 16~18 h. Imipenem was employed as positive control, bacterial grown without treatment as negative control and MHB as blank control. MIC determination was performed by reading the OD600 nm. Take 100 μL samples in holes that have never seen bacterial growth and place them on the LB agar board. The concentration of MR-22 with no bacterial growth was defined as the MBC.

[1] = test system: E. coli clinical strain E06; conditions: for MIC: Escherichia coli, 18 h; for susceptibility category (S/I/R) given with the MIC: strain E06
Protocol: (§2) The clinical strains used in this study were obtained from a tertiary healthcare facility located in Guiyang, a city situated within the Guizhou Province of China. The E. coli ATCC 25922 was obtained from the Key and Characteristic Laboratory of Modern Pathogen Biology at Guizhou Medical University in Guiyang, China. All strains were stored at –80°C in LB medium and routinely cultured at LB medium at 37°C.
as §1

[2] = test system: E. coli clinical strain E11; conditions: for MIC: Escherichia coli, 18 h; for susceptibility category (S/I/R) given with the MIC: strain E11
Protocol: as §2, §1

[3] = test system: E. coli clinical strain E02; conditions: for MIC: Escherichia coli, 18 h; for susceptibility category (S/I/R) given with the MIC: strain E02
Protocol: as §2, §1

[4] = test system: E. coli clinical strain E17; conditions: for MIC: Escherichia coli, 18 h; for susceptibility category (S/I/R) given with the MIC: strain E17
Protocol: as §2, §1

[5] = test system: E. coli clinical strain E05; conditions: for MIC: Escherichia coli, 18 h; for susceptibility category (S/I/R) given with the MIC: strain E05
Protocol: as §2, §1

[6] = test system: E. coli clinical strain E20; conditions: for MIC: Escherichia coli, 18 h; for susceptibility category (S/I/R) given with the MIC: strain E20
Protocol: as §2, §1

[7] = test system: E. coli clinical strain E08; conditions: for MIC: Escherichia coli, 18 h; for susceptibility category (S/I/R) given with the MIC: strain E08
Protocol: as §2, §1

[8] = test system: E. coli clinical strain E12; conditions: for MIC: Escherichia coli, 18 h; for susceptibility category (S/I/R) given with the MIC: strain E12
Protocol: as §2, §1

[9] = test system: E. coli clinical strain E15; conditions: for MIC: Escherichia coli, 18 h; for susceptibility category (S/I/R) given with the MIC: strain E15
Protocol: as §2, §1

[10] = test system: E. coli clinical strain E07; conditions: for MIC: Escherichia coli, 18 h; for susceptibility category (S/I/R) given with the MIC: strain E07
Protocol: as §2, §1

[11] = test system: E. coli clinical strain E13; conditions: for MIC: Escherichia coli, 18 h; for susceptibility category (S/I/R) given with the MIC: strain E13
Protocol: as §2, §1

[12] = test system: E. coli clinical strain E21; conditions: for MIC: Escherichia coli, 18 h; for susceptibility category (S/I/R) given with the MIC: strain E21
Protocol: as §2, §1

[13] = test system: E. coli clinical strain E19; conditions: for MIC: Escherichia coli, 18 h; for susceptibility category (S/I/R) given with the MIC: strain E19
Protocol: as §2, §1

[14] = test system: E. coli clinical strain E10; conditions: for MIC: Escherichia coli, 18 h; for susceptibility category (S/I/R) given with the MIC: strain E10
Protocol: as §2, §1

[15] = test system: E. coli clinical strain E04; conditions: for MIC: Escherichia coli, 18 h; for susceptibility category (S/I/R) given with the MIC: strain E04
Protocol: as §2, §1

[16] = test system: E. coli clinical strain E09; conditions: for MIC: Escherichia coli, 18 h; for susceptibility category (S/I/R) given with the MIC: strain E09
Protocol: as §2, §1

[17] = test system: E. coli clinical strain E22; conditions: for MIC: Escherichia coli, 18 h; for susceptibility category (S/I/R) given with the MIC: strain E22
Protocol: as §2, §1

[18] = test system: E. coli clinical strain E14; conditions: for MIC: Escherichia coli, 18 h; for susceptibility category (S/I/R) given with the MIC: strain E14
Protocol: as §2, §1

[19] = test system: E. coli clinical strain E01; conditions: for MIC: Escherichia coli, 18 h; for susceptibility category (S/I/R) given with the MIC: strain E01
Protocol: as §2, §1

[20] = test system: E. coli clinical strain E03; conditions: for MIC: Escherichia coli, 18 h; for susceptibility category (S/I/R) given with the MIC: strain E03
Protocol: as §2, §1

[21] = test system: E. coli clinical strain E18; conditions: for MIC: Escherichia coli, 18 h; for susceptibility category (S/I/R) given with the MIC: strain E18
Protocol: as §2, §1

[22] = test system: E. coli clinical strain E16; conditions: for MIC: Escherichia coli, 18 h; for susceptibility category (S/I/R) given with the MIC: strain E16
Protocol: as §2, §1

Structure (SMILES): CN(C)[C@@H]1C(O)=C(C(N)=O)C(=O)[C@@]2(O)C(O)=C3C(=O)c4c(O)cccc4[C@@](C)(O)[C@H]3C[C@@H]12 [TET, tetracycline]
- susceptibility category (S/I/R) given with the MIC (E. coli ATCC 25922): S
- MIC (E. coli ATCC 25922): ≤ 0.5 µg/mL
- MIC [1]: > 8 µg/mL
- susceptibility category (S/I/R) given with the MIC [1]: R
- MIC [2]: > 8 µg/mL
- susceptibility category (S/I/R) given with the MIC [2]: R
- MIC [3]: > 8 µg/mL
- susceptibility category (S/I/R) given with the MIC [3]: R
- MIC [4]: ≤ 0.5 µg/mL
- susceptibility category (S/I/R) given with the MIC [4]: S
- MIC [5]: > 8 µg/mL
- susceptibility category (S/I/R) given with the MIC [5]: R
- MIC [6]: ≤ 0.5 µg/mL
- susceptibility category (S/I/R) given with the MIC [6]: S
- MIC [7]: > 8 µg/mL
- susceptibility category (S/I/R) given with the MIC [7]: R
- MIC [8]: > 8 µg/mL
- susceptibility category (S/I/R) given with the MIC [8]: R
- MIC [9]: ≤ 0.5 µg/mL
- susceptibility category (S/I/R) given with the MIC [9]: S
- MIC [10]: > 8 µg/mL
- susceptibility category (S/I/R) given with the MIC [10]: R
- MIC [11]: ≤ 0.5 µg/mL
- susceptibility category (S/I/R) given with the MIC [11]: S
- MIC [12]: ≤ 0.5 µg/mL
- susceptibility category (S/I/R) given with the MIC [12]: S
- MIC [13]: ≤ 0.5 µg/mL
- susceptibility category (S/I/R) given with the MIC [13]: S
- MIC [14]: ≤ 0.5 µg/mL
- susceptibility category (S/I/R) given with the MIC [14]: S
- MIC [15]: > 8 µg/mL
- susceptibility category (S/I/R) given with the MIC [15]: R
- MIC [16]: > 8 µg/mL
- susceptibility category (S/I/R) given with the MIC [16]: R
- MIC [17]: ≤ 0.5 µg/mL
- susceptibility category (S/I/R) given with the MIC [17]: S
- MIC [18]: > 8 µg/mL
- susceptibility category (S/I/R) given with the MIC [18]: R
- MIC [19]: ≤ 0.5 µg/mL
- susceptibility category (S/I/R) given with the MIC [19]: S
- MIC [20]: > 8 µg/mL
- susceptibility category (S/I/R) given with the MIC [20]: R
- MIC [21]: ≤ 0.5 µg/mL
- susceptibility category (S/I/R) given with the MIC [21]: S
- MIC [22]: ≤ 0.5 µg/mL
- susceptibility category (S/I/R) given with the MIC [22]: S

- susceptibility category (S/I/R) given with the MIC (E. coli ATCC 25922): S
- MIC (E. coli ATCC 25922): ≤ 2 µg/mL
- MIC [1]: > 16 µg/mL
- susceptibility category (S/I/R) given with the MIC [1]: R
- MIC [2]: > 16 µg/mL
- susceptibility category (S/I/R) given with the MIC [2]: R
- MIC [3]: > 16 µg/mL
- susceptibility category (S/I/R) given with the MIC [3]: R
- MIC [4]: ≤ 2 µg/mL
- susceptibility category (S/I/R) given with the MIC [4]: S
- MIC [5]: > 16 µg/mL
- susceptibility category (S/I/R) given with the MIC [5]: R
- MIC [6]: 16 µg/mL (≈ 33.3 µM)
- susceptibility category (S/I/R) given with the MIC [6]: R
- MIC [7]: ≤ 2 µg/mL
- susceptibility category (S/I/R) given with the MIC [7]: S
- MIC [8]: 4 µg/mL (≈ 8.32 µM)
- susceptibility category (S/I/R) given with the MIC [8]: I
- MIC [9]: ≤ 2 µg/mL
- susceptibility category (S/I/R) given with the MIC [9]: S
- MIC [10]: > 16 µg/mL
- susceptibility category (S/I/R) given with the MIC [10]: R
- MIC [11]: ≤ 2 µg/mL
- susceptibility category (S/I/R) given with the MIC [11]: S
- MIC [12]: 16 µg/mL (≈ 33.3 µM)
- susceptibility category (S/I/R) given with the MIC [12]: R
- MIC [13]: 16 µg/mL (≈ 33.3 µM)
- susceptibility category (S/I/R) given with the MIC [13]: R
- MIC [14]: 16 µg/mL (≈ 33.3 µM)
- susceptibility category (S/I/R) given with the MIC [14]: R
- MIC [15]: > 16 µg/mL
- susceptibility category (S/I/R) given with the MIC [15]: R
- MIC [16]: ≤ 2 µg/mL
- susceptibility category (S/I/R) given with the MIC [16]: S
- MIC [17]: ≥ 32 µg/mL
- susceptibility category (S/I/R) given with the MIC [17]: R
- MIC [18]: 16 µg/mL (≈ 33.3 µM)
- susceptibility category (S/I/R) given with the MIC [18]: R
- MIC [19]: ≤ 2 µg/mL
- susceptibility category (S/I/R) given with the MIC [19]: S
- MIC [20]: 16 µg/mL (≈ 33.3 µM)
- susceptibility category (S/I/R) given with the MIC [20]: R
- MIC [21]: 16 µg/mL (≈ 33.3 µM)
- susceptibility category (S/I/R) given with the MIC [21]: R
- MIC [22]: ≤ 2 µg/mL
- susceptibility category (S/I/R) given with the MIC [22]: S
Structure (SMILES): CO/N=C(\C(=O)N[C@@H]1C(=O)N2C(C(=O)[O-])=C(C[N+]3(C)CCCC3)CS[C@H]12)c1csc(N)n1 [FEP, cefepime]

- susceptibility category (S/I/R) given with the MIC (E. coli ATCC 25922): S
- MIC (E. coli ATCC 25922): ≤ 0.5 µg/mL
- MIC [1]: 8 µg/mL (≈ 22.1 µM)
- susceptibility category (S/I/R) given with the MIC [1]: R
- MIC [2]: ≤ 0.5 µg/mL
- susceptibility category (S/I/R) given with the MIC [2]: S
- MIC [3]: ≤ 0.5 µg/mL
- susceptibility category (S/I/R) given with the MIC [3]: S
- MIC [4]: > 8 µg/mL
- susceptibility category (S/I/R) given with the MIC [4]: R
- MIC [5]: ≤ 0.5 µg/mL
- susceptibility category (S/I/R) given with the MIC [5]: S
- MIC [6]: > 8 µg/mL
- susceptibility category (S/I/R) given with the MIC [6]: R
- MIC [7]: ≤ 0.5 µg/mL
- susceptibility category (S/I/R) given with the MIC [7]: S
- MIC [8]: > 8 µg/mL
- susceptibility category (S/I/R) given with the MIC [8]: R
- MIC [9]: 0.5 µg/mL (≈ 1.38 µM)
- susceptibility category (S/I/R) given with the MIC [9]: S
- MIC [10]: ≤ 0.5 µg/mL
- susceptibility category (S/I/R) given with the MIC [10]: S
- MIC [11]: ≤ 0.5 µg/mL
- susceptibility category (S/I/R) given with the MIC [11]: S
- MIC [12]: ≤ 0.5 µg/mL
- susceptibility category (S/I/R) given with the MIC [12]: S
- MIC [13]: > 8 µg/mL
- susceptibility category (S/I/R) given with the MIC [13]: R
- MIC [14]: ≤ 0.5 µg/mL
- susceptibility category (S/I/R) given with the MIC [14]: S
- MIC [15]: > 8 µg/mL
- susceptibility category (S/I/R) given with the MIC [15]: R
- MIC [16]: 8 µg/mL (≈ 22.1 µM)
- susceptibility category (S/I/R) given with the MIC [16]: R
- MIC [17]: > 8 µg/mL
- susceptibility category (S/I/R) given with the MIC [17]: R
- MIC [18]: > 8 µg/mL
- susceptibility category (S/I/R) given with the MIC [18]: R
- MIC [19]: ≤ 0.5 µg/mL
- susceptibility category (S/I/R) given with the MIC [19]: S
- MIC [20]: 8 µg/mL (≈ 22.1 µM)
- susceptibility category (S/I/R) given with the MIC [20]: R
- MIC [21]: > 8 µg/mL
- susceptibility category (S/I/R) given with the MIC [21]: R
- MIC [22]: 1 µg/mL (≈ 2.77 µM)
- susceptibility category (S/I/R) given with the MIC [22]: I
Structure (SMILES): C[C@H]1COc2c(N3CCN(C)CC3)c(F)cc3c(=O)c(C(=O)O)cn1c23 [LEV, levofloxacin]
